{"source": "ChEMBL document CHEMBL1201862", "about": "“PubChem BioAssay data set” (2004)", "key": {"[1]": {"tested_on": "Candida albicans", "assay": "resistant Candida growth with fluconazole co-treatment – CaCi-8 strain, Alamar Blue, dry powder, set 3, dose response (AID 488905)", "assay_type": "functional, organism-based"}, "[2]": {"tested_on": "Candida albicans", "assay": "Candida growth inhibition combined with fluconazole – CaCi-2 strain, Alamar Blue, dry powder, set 3, dose response (AID 488907)", "assay_type": "functional, organism-based"}, "[3]": {"tested_on": "Erythrocyte", "assay": "FACS-based assay to assess parasite growth inhibition 96 hr Measured in Cell-Based System Using Flow Cytometry - 2126-05_Inhibitor_Dose_DryPowder_Activity. [Related pubchem assays (depositor defined):AID488774]", "assay_type": "functional", "conditions": "Homo sapiens"}, "[4]": {"assay": "A cell-based HTS for delayed death inhibitors of the malarial parasite plastid Measured in Microorganism System Using Plate Reader - 2126-02_Inhibitor_Dose_DryPowder_Activity.", "assay_type": "functional, organism-based"}, "[5]": {"assay": "A cell-based HTS for delayed death inhibitors of the malarial parasite plastid Measured in Microorganism System Using Plate Reader - 2126-01_Inhibitor_Dose_DryPowder_Activity.", "assay_type": "functional, organism-based"}, "[6]": {"assay": "FACS-based assay to assess parasite growth inhibition 48 hr Measured in Cell-Based System Using Flow Cytometry - 2126-03_Inhibitor_Dose_DryPowder_Activity. [Related pubchem assays (depositor defined):AID488774]", "assay_type": "functional", "conditions": "Homo sapiens"}, "[7]": {"assay": "HepG2 cell cytotoxicity, cytotoxicity control, set 6 (AID 602432)", "assay_type": "functional", "conditions": "Mycobacterium tuberculosis"}, "[8]": {"assay": "viability loss in Vero cells – cell-based, purified and synthesized samples, set 8, cytotoxicity control for M. tuberculosis inhibitor project (AID 602431)", "assay_type": "functional", "conditions": "Mycobacterium tuberculosis"}, "[9]": {"assay": "THP-1 cell cytotoxicity, cytotoxicity control, set 6 (AID 602433)", "assay_type": "functional", "conditions": "Mycobacterium tuberculosis"}, "[10]": {"biological_target": "ALK tyrosine kinase receptor (Homo sapiens, UniProt Q9UM73)", "sequence (Q9UM73 whole entry)": "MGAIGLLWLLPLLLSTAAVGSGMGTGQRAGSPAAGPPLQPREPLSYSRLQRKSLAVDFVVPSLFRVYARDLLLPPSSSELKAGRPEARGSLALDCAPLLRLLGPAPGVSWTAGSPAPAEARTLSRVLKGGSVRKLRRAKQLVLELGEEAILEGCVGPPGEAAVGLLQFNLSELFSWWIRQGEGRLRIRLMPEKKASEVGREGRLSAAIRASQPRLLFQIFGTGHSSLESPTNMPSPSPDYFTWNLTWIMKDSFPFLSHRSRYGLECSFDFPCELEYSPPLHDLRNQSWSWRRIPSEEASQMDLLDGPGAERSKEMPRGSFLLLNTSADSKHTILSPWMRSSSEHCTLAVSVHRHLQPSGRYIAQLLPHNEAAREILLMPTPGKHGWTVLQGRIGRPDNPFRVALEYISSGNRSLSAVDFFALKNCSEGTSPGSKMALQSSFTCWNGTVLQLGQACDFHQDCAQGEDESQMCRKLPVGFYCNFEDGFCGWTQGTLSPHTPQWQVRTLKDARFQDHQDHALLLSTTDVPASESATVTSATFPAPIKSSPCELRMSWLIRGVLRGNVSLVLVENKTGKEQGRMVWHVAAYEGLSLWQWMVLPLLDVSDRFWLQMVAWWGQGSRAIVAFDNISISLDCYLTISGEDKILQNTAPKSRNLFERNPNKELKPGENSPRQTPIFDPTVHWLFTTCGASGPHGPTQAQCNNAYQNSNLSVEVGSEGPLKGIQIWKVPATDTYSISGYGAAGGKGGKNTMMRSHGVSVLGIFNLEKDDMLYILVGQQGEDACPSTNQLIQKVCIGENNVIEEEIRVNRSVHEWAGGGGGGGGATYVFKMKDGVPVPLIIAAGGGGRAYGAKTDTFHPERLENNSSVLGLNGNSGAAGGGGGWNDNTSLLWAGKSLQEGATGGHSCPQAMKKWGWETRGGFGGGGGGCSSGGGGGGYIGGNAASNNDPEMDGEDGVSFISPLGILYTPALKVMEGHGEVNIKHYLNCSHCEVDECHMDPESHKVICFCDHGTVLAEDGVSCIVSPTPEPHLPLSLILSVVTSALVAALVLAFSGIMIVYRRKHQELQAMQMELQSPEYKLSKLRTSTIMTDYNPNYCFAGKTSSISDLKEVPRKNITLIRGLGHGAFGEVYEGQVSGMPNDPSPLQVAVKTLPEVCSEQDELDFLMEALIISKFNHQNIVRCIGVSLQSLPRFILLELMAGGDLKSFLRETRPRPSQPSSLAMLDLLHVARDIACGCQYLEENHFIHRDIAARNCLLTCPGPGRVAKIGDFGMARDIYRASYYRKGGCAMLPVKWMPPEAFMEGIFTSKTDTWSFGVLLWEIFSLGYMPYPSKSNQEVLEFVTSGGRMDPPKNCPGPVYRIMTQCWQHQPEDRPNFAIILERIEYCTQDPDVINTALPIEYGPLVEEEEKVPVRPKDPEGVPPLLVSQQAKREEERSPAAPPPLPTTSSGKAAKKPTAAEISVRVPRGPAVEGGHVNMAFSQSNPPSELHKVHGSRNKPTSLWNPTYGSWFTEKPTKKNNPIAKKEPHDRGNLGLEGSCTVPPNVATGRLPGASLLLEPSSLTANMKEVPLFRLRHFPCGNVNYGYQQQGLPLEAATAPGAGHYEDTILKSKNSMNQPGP", "assay_type": "functional"}, "[11]": {"biological_target": "Cyclin-dependent kinase 19 (Homo sapiens, UniProt Q9BWU1)", "sequence (Q9BWU1 whole entry)": "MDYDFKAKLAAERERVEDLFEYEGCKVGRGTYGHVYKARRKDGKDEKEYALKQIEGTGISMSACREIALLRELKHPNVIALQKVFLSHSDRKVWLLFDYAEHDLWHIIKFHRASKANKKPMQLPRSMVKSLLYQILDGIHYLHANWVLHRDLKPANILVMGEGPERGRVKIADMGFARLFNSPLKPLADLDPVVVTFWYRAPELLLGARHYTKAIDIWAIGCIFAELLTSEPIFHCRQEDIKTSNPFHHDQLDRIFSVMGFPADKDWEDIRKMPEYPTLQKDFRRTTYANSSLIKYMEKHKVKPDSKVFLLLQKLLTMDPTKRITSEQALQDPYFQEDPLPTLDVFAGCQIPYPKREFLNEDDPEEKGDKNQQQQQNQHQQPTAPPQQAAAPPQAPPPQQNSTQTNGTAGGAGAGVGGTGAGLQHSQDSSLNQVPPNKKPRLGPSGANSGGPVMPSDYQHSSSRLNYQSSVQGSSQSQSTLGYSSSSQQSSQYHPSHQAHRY", "assay": "Navigating the Kinome. Panel member name: CDC2L6", "assay_type": "functional"}, "[12]": {"assay": "Vero cell cytotoxicity, dose response, cytotoxicity control for M. tuberculosis growth inhibitor project, Vero cells, purified and synthesized compounds, set 4 (AID 504854)", "assay_type": "functional", "conditions": "Mycobacterium tuberculosis"}, "[13]": {"biological_target": "T1, Insulin-degrading enzyme (Homo sapiens, UniProt P14735)", "T1 sequence (P14735 whole entry)": "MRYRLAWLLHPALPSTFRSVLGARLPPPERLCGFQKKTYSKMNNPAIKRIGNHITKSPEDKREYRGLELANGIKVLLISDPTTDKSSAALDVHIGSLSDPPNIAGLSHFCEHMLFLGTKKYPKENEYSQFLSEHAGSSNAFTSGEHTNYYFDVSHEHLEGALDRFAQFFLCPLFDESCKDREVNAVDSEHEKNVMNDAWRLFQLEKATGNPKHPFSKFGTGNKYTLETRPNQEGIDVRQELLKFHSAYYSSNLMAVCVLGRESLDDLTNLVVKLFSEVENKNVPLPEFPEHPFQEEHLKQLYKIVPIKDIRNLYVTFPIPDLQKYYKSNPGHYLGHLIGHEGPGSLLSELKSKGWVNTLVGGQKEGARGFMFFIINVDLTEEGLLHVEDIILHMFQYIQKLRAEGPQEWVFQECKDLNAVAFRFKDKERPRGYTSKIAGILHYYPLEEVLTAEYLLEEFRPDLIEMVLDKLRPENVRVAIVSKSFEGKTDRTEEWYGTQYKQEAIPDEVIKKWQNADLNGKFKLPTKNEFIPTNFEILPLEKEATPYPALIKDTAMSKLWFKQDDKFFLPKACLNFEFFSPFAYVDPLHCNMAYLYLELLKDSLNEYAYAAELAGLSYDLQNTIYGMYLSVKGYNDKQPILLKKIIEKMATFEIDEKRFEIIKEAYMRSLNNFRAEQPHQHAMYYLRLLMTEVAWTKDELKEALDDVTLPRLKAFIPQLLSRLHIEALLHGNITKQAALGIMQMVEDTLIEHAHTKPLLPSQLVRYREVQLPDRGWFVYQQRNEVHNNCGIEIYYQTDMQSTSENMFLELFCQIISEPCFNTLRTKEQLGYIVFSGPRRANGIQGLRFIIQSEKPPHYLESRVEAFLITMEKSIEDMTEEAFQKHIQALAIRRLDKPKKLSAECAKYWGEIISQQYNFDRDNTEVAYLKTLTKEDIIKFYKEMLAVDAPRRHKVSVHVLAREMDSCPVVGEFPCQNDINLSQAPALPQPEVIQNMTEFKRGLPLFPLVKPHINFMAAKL", "assay": "cellular IDE activation of Abeta substrate cleavage – fluorescence polarization, HEK cells, dose response (AID 588439)", "assay_type": "functional, cell-based"}, "[14]": {"biological_target": "T1, Insulin-degrading enzyme", "assay": "recombinant IDE activation, cell-free – biochemical, fluorescence polarization, counter-screen for IDE activator project, dose response (AID 588681)"}, "[15]": {"tested_on": "HEK293", "assay": "membrane integrity loss in HEK cells – cell-based, fluorescence, cytotoxicity control for IDE activator project, dose response (AID 588440);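 note: cytotoxicity by LDH release measuring loss of membrane integrity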", "assay_type": "functional", "conditions": "Homo sapiens"}, "[16]": {"tested_on": "HEK293", "assay": "optical interference in Abeta FP readout, dose response, artefact control for IDE activator project, biochemical, fluorescence polarization (AID 588442)", "assay_type": "functional, cell-based", "conditions": "Homo sapiens"}}, "note": "The source made the active and inactive calls. Unless noted, no cut-off for these calls is given here.", "data": [{"compound": "O=C(c1ccc(Cl)cc1)N1CCN(c2nc3ccccc3s2)CC1", "values": [{"measurement": "AC50", "setting": "[1]", "result": "0.565 µM (active)"}, {"measurement": "AC50", "setting": "[2]", "result": "1.41 µM (active)"}]}, {"compound": "COc1ccc(COC[C@H](C)N2C[C@@H](C)[C@H](CN(C)S(=O)(=O)c3ccc(F)cc3)OCCCC[C@H](C)Oc3ccc(NC(=O)Nc4ccccc4)cc3C2=O)cc1", "values": [{"measurement": "AC50", "setting": "[3]", "result": "0.001 µM (active)"}, {"measurement": "AC50", "setting": "[4]", "result": "0.00018 µM (active)"}, {"measurement": "AC50", "setting": "[5]", "result": "0.000294 µM (active)"}, {"measurement": "AC50", "setting": "[6]", "result": "0.0008 µM (active)"}]}, {"compound": "COc1ccc(N2CCN(C(=O)c3ccc(CNc4c(N5CCCC(C)C5)c(=O)c4=O)cc3)CC2)cc1", "note": "(stereo unspecified)", "values": [{"measurement": "CC50", "setting": "[7]", "result": "> 50 µM (inconclusive)"}, {"measurement": "CC50", "setting": "[8]", "result": "> 100 µM (inconclusive)"}, {"measurement": "CC50", "setting": "[9]", "result": "> 98.4 µM (active)"}]}, {"compound": "O=C(O)c1c(Cl)ccc2cc(-n3cccc3)cnc12", "values": [{"measurement": "Ki", "setting": "[10]", "result": "3.98 µM (active)"}, {"measurement": "Ki", "setting": "[11]", "result": "> 100 µM (inactive)"}]}, {"compound": "CC(C)CCNC(=O)CSc1nc2c(c(=O)[nH]1)CCC2", "values": [{"measurement": "CC50", "setting": "[12]", "result": "> 100 µM (active)"}]}, {"compound": "Cc1ccc2c(c1)c1c(n2CC(O)CNC2CCCC2)CCCC1", "note": "(stereo unspecified)", "values": [{"measurement": "EC50", "setting": "[13]", "result": "> 54.7 µM (inactive)"}, {"measurement": "EC50", "setting": "[14]", "result": "> 54.7 µM (inactive)"}, {"measurement": "IC50", "setting": "[15]", "result": "61.9 µM (inactive)"}, {"measurement": "EC50", "setting": "[16]", "result": "> 55.9 µM (inactive)"}]}]}
